Laboratory results as given in US11697648B2, “Fused pyrimidine pyridinone compounds as JAK inhibitors” (THERAVANCE BIOPHARMA R&D IP, LLC, priority 2019, dated 2023).

Key:
[1] = molecular target: JAK3 (Homo sapiens (Human), UniProt P52333); experiment: Biochemical JAK3 kinase assay (LanthaScreen); conditions: for JAK3 (pKi)-JAK1 (pKi): selectivity JAK3 over JAK1, difference of pKi
Procedure, shortened: (§1)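 GST-JAK + GFP-STAT1 peptide, HEPES pH 7.5/MgCl2/EGTA/Brij-35 buffer; cpd preincubation 1 h RT; ATP start, 1 h RT; stop with 10 mM EDTA + 2 nM Tb-anti-pSTAT1; TR-FRET 520/495. 4-parameter IC50 → pKi (Cheng-Prusoff).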

[2] = molecular target: JAK1 (Homo sapiens (Human), UniProt P23458); experiment: Biochemical JAK1 kinase assay (LanthaScreen)
Sequence of JAK1 (P23458 whole entry): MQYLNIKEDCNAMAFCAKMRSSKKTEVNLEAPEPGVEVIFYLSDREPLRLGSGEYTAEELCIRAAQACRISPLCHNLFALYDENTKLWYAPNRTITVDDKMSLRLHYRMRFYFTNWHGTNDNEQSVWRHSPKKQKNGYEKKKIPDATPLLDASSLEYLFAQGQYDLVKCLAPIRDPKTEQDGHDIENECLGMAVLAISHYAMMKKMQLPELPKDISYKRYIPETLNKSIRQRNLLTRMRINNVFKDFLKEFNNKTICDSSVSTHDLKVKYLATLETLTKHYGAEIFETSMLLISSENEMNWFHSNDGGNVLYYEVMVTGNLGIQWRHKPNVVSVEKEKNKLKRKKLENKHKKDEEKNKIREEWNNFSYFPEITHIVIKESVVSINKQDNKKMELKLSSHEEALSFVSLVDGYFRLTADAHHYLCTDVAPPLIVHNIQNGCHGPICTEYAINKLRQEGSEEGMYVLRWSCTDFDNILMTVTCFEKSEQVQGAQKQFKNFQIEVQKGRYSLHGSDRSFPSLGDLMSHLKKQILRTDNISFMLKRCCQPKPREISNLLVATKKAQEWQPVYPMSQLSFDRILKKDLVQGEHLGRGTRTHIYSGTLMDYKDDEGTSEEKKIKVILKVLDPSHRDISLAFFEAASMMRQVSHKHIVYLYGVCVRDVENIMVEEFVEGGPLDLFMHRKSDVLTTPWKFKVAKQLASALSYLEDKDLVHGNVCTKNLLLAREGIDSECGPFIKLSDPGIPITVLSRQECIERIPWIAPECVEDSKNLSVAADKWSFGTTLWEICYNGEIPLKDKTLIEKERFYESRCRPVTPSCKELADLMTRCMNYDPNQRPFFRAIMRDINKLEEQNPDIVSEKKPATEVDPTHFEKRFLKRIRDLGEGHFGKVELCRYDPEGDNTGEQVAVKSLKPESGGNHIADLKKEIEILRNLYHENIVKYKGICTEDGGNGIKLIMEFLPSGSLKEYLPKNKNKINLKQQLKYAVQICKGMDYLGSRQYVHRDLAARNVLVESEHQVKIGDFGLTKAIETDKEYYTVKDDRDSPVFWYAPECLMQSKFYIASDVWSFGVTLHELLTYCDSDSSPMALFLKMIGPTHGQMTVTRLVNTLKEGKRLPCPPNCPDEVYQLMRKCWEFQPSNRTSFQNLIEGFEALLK
Procedure, shortened: as §1

[3] = tested on: IL-2 stimulated STAT5 phosphorylation in Tall-1 human T cell line (JAK3); experiment: Cellular JAK3 potency assay: inhibition of IL-2 stimulated pSTAT5 in Tall-1 T cells; type: cell-based; conditions: IL-2 stimulated pSTAT5, Tall-1 T cells
Procedure, shortened: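 AlphaLISA SureFire Ultra measures STAT5 Tyr694/699 phosphorylation in lysed Tall-1 human T cells. Cells were exposed to compound for 1 h at 37 °C before a 30 min IL-2 challenge (300 ng/ml final). Values are pIC50 means with standard deviation from signal-versus-concentration curves.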

[4] = molecular target: Tyk2 (Homo sapiens (Human), UniProt P29597); experiment: Biochemical Tyk2 kinase assay (LanthaScreen)
Sequence of Tyk2 (P29597 whole entry): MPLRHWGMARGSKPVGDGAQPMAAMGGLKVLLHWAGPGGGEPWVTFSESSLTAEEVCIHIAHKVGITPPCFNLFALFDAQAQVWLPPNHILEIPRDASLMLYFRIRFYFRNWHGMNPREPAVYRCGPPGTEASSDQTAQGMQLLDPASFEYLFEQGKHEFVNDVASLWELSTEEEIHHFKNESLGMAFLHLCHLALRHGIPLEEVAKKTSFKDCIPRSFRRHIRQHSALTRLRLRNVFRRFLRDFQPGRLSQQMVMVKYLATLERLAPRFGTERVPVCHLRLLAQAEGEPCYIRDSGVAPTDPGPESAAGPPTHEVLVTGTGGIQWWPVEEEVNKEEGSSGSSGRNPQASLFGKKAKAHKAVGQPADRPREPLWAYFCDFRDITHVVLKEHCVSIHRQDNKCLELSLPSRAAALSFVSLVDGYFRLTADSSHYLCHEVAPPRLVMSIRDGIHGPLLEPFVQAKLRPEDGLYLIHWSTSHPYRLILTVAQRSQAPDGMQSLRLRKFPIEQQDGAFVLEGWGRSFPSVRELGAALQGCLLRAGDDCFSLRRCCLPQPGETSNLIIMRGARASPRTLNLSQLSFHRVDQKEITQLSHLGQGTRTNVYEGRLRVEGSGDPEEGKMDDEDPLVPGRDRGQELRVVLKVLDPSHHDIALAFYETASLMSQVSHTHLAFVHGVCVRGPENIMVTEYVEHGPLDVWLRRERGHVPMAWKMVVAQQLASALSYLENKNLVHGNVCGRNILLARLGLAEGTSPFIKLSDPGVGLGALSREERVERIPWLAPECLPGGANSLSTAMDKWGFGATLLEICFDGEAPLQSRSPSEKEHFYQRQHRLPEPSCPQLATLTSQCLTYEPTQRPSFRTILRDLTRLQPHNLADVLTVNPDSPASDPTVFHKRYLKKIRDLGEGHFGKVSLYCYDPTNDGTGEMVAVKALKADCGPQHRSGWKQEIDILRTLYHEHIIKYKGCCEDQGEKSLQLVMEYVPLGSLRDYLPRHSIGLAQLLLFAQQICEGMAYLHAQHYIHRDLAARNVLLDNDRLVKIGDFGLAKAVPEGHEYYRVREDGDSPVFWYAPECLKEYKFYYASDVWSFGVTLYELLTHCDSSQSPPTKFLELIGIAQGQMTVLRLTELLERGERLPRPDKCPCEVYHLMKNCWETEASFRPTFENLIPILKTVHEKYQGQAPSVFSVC
Procedure, shortened: as §1

[5] = tested on: Caco-2 cell monolayers; experiment: Caco-2 permeation assay; type: in vitro ADME; conditions: 5 μM, A-B direction, with Verapamil (25 μM)
Procedure: Assay 4: Caco-2 Permeation Assay
The Caco-2 permeation assay was performed to model the ability of test compounds to pass through the intestine and get into the blood stream after oral administration. The rate at which test compounds in solution permeate a cell monolayer designed to mimic the tight junction of human small intestinal monolayers was determined.
CacoReady 24-well transwell plates were obtained from ADMEcell (Alameda, Calif.). The compounds were evaluated at a concentration of 5 μM from 10 mM DMSO stock solutions in duplicate (n=2). The passive permeability of the compounds tested was evaluated using Caco-2 cell monolayers along with Verapamil (25 μM) to inhibit P-gp transport proteins in the apical to basolateral (A-B) direction. The experiment was conducted in a 37° C., 5% CO2 incubator. Caco-2 culture media consisted of standard filtered DMEM, FCS 10%, L-Glutamine 1% and PenStrep 1%. Basal assay plate was prepared by adding 750 μL of transport buffer to A-B wells. A CacoReady™ plate was prepared by removing the Caco-2 media from the apical wells and replacing with fresh transport media (200 μL repeated for a total of 3 washes). Blank media (200 μL) was then replaced with diluted compound for A-B wells. To begin the incubation, the basal plate was removed from the incubator and the apical section was added on top of it. Samples (40 μL) were collected from the apical and basal compartments for time zero (t0). Samples were collected again after 120 minutes (t120) from the apical and basal compartments. All samples were diluted and prepared for bioanalysis by LC-MS/MS. The permeation coefficient (Kp, mean A to B+ Verapamil Papparent) in cm/sec was calculated as dQ (flux)/(dt×Area×concentration).
In this assay, a Kp value less than about 5×10^−6 cm/sec is considered favorable to minimize systemic exposure and target the colon. A Kp value less than about 10×10^−6 cm/sec may also be sufficient to minimize systemic exposure and target the colon.

[6] = molecular target: JAK2 (Homo sapiens (Human), UniProt O60674); experiment: Biochemical JAK2 kinase assay (LanthaScreen)
Sequence of JAK2 (O60674 whole entry): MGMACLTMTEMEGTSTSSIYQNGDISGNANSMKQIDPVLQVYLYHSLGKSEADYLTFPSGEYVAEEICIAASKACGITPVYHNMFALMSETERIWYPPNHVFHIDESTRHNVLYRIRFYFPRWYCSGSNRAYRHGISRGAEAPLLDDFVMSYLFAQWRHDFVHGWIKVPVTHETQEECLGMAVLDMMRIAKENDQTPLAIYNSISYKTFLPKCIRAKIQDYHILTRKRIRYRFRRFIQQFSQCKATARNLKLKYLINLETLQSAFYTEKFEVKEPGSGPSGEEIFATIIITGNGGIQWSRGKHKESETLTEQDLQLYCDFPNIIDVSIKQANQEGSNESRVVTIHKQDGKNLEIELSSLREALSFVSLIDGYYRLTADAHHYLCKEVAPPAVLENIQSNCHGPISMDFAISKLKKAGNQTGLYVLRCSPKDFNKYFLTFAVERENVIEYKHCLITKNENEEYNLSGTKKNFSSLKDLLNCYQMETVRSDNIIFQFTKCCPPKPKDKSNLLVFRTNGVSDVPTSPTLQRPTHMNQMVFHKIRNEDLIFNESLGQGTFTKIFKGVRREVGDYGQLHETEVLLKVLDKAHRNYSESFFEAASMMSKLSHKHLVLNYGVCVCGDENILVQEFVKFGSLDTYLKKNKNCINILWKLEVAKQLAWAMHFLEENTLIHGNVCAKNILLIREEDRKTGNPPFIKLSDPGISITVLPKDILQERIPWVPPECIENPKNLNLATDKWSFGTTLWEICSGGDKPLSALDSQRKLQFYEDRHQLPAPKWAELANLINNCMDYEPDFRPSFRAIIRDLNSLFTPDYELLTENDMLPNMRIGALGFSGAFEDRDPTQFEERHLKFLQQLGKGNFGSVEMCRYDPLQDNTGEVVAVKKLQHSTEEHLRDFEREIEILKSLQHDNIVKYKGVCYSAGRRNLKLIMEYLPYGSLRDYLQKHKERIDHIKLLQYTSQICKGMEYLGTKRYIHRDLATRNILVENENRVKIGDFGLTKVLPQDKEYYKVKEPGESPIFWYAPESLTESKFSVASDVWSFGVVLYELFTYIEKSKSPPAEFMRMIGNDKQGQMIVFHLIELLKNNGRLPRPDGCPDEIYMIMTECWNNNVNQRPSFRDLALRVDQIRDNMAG
Procedure, shortened: as §1

Sequence of JAK3 (P52333 whole entry): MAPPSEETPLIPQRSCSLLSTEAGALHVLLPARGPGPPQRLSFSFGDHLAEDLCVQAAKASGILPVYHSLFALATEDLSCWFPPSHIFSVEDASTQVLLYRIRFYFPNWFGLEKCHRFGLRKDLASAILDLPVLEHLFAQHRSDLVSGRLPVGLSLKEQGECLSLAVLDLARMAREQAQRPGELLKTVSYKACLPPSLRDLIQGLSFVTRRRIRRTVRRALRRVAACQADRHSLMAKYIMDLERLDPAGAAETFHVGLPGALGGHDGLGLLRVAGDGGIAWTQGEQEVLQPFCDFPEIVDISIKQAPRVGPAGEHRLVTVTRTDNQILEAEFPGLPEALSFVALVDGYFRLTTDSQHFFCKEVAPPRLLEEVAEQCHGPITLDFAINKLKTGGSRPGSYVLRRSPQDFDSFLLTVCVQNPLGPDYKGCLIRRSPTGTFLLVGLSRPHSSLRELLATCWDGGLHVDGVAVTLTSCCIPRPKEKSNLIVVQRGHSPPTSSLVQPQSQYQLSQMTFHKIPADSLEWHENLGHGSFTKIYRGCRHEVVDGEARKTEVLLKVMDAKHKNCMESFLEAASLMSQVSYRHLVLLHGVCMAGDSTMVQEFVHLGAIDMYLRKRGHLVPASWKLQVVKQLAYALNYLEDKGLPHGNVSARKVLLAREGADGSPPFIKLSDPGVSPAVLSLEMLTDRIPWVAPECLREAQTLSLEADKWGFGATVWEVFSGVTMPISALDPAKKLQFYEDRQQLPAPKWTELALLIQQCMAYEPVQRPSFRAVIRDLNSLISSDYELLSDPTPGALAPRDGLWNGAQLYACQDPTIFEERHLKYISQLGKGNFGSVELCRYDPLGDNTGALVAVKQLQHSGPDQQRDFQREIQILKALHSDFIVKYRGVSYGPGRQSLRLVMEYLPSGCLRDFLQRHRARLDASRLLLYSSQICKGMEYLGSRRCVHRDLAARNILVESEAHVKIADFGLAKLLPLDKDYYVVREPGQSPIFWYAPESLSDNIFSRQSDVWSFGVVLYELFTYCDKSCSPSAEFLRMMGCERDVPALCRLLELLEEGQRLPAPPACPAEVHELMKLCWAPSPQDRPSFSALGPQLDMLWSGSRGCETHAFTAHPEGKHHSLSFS

| Structure (SMILES) | JAK 3 (pKi) [1] | JAK3 (pKi)-JAK1 (pKi) [1] | JAK 1 (pKi) [2] | Tall-1 (pIC50) [3] | Tyk 2 (pKi) [4] | Caco Kp [5] | JAK 2 (pKi) [6] |
| --- | --- | --- | --- | --- | --- | --- | --- |
| C=CC(=O)N1CC(CCn2c(=O)ccc3cnc(Nc4ccccc4)nc32)C1 [Example 18] | A (A represents a pKi value≥10 (Ki≤0.1 nM)) | A (A represents a value of 3 or above) | E (E represents a pKi value of 7 or below (Ki of 100 nM or above)) | B (B represents a pC50 value between 6.7 (included) and 7.5 (IC50 between 200 nM and 32 nM)) | E (E represents a pKi value of 7 or below (Ki of 100 nM or above)) | C (C represents a value between 10×10^−6 and 30×10^−6 cm/sec) | E (E represents a pKi value of 7 or below (Ki of 100 nM or above)) |
| C=CC(=O)N1CC(CCn2c(=O)ccc3cnc(Nc4cccc(OC)c4)nc32)C1 [Example 19] | B (B represents pKi value between 9 and 10 (Ki between 1 nM and 0.1 nM)) | A (A represents a value of 3 or above) | E (E represents a pKi value of 7 or below (Ki of 100 nM or above)) | C (C represents a pIC50 value between 6 and 6.7 (IC50 between 1 μM and 200 nM)) | E (E represents a pKi value of 7 or below (Ki of 100 nM or above)) | C (C represents a value between 10×10^−6 and 30×10^−6 cm/sec) | E (E represents a pKi value of 7 or below (Ki of 100 nM or above)) |
| C=CC(=O)N1CC(CCn2c(=O)ccc3cnc(Nc4cnn(CCOC(F)F)c4)nc32)C1 [Example 25] | B (B represents pKi value between 9 and 10 (Ki between 1 nM and 0.1 nM)) | A (A represents a value of 3 or above) | E (E represents a pKi value of 7 or below (Ki of 100 nM or above)) | C (C represents a pIC50 value between 6 and 6.7 (IC50 between 1 μM and 200 nM)) | E (E represents a pKi value of 7 or below (Ki of 100 nM or above)) | B (B represents a value between 5×10^−6 and 10×10^−6 cm/sec) | E (E represents a pKi value of 7 or below (Ki of 100 nM or above)) |
| C=CC(=O)N1CCN(CCn2c(=O)ccc3cnc(Nc4cnn(C)c4)nc32)[C@@H](C)C1 [Example 30] | A (A represents a pKi value≥10 (Ki≤0.1 nM)) | A (A represents a value of 3 or above) | E (E represents a pKi value of 7 or below (Ki of 100 nM or above)) | B (B represents a pC50 value between 6.7 (included) and 7.5 (IC50 between 200 nM and 32 nM)) | E (E represents a pKi value of 7 or below (Ki of 100 nM or above)) | A (A represents a value below 5×10^−6 cm/sec) | E (E represents a pKi value of 7 or below (Ki of 100 nM or above)) |
| C=CC(=O)N1CCN(CCn2c(=O)ccc3cnc(Nc4cnn(C)c4)nc32)CC12CC2 [Example 32] | B (B represents pKi value between 9 and 10 (Ki between 1 nM and 0.1 nM)) | A (A represents a value of 3 or above) | E (E represents a pKi value of 7 or below (Ki of 100 nM or above)) | B (B represents a pC50 value between 6.7 (included) and 7.5 (IC50 between 200 nM and 32 nM)) | E (E represents a pKi value of 7 or below (Ki of 100 nM or above)) | B (B represents a value between 5×10^−6 and 10×10^−6 cm/sec) | E (E represents a pKi value of 7 or below (Ki of 100 nM or above)) |
| C=CC(=O)N1CC(CCn2c(=O)ccc3cnc(Nc4cnn(C5CCN(C)CC5)c4)nc32)C1 [Example 51] | B (B represents pKi value between 9 and 10 (Ki between 1 nM and 0.1 nM)) | A (A represents a value of 3 or above) | E (E represents a pKi value of 7 or below (Ki of 100 nM or above)) | B (B represents a pC50 value between 6.7 (included) and 7.5 (IC50 between 200 nM and 32 nM)) | E (E represents a pKi value of 7 or below (Ki of 100 nM or above)) | A (A represents a value below 5×10^−6 cm/sec) | E (E represents a pKi value of 7 or below (Ki of 100 nM or above)) |
| C=CC(=O)N1CC(CCn2c(=O)ccc3cnc(Nc4cnn(CCN(CC)CC)c4)nc32)C1 [Example 55] | B (B represents pKi value between 9 and 10 (Ki between 1 nM and 0.1 nM)) | A (A represents a value of 3 or above) | E (E represents a pKi value of 7 or below (Ki of 100 nM or above)) | B (B represents a pC50 value between 6.7 (included) and 7.5 (IC50 between 200 nM and 32 nM)) | E (E represents a pKi value of 7 or below (Ki of 100 nM or above)) | A (A represents a value below 5×10^−6 cm/sec) | E (E represents a pKi value of 7 or below (Ki of 100 nM or above)) |
| C=CC(=O)N1CC(CCn2c(=O)ccc3cnc(Nc4ccc5c(c4)oc(=O)n5C)nc32)C1 [Example 60] | B (B represents pKi value between 9 and 10 (Ki between 1 nM and 0.1 nM)) | A (A represents a value of 3 or above) | E (E represents a pKi value of 7 or below (Ki of 100 nM or above)) | B (B represents a pC50 value between 6.7 (included) and 7.5 (IC50 between 200 nM and 32 nM)) | E (E represents a pKi value of 7 or below (Ki of 100 nM or above)) | B (B represents a value between 5×10^−6 and 10×10^−6 cm/sec) | E (E represents a pKi value of 7 or below (Ki of 100 nM or above)) |
| C=CC(=O)N1CC(CCn2c(=O)ccc3cnc(Nc4cnn(CCN5CCOCC5)c4)nc32)C1 [Example 61] | B (B represents pKi value between 9 and 10 (Ki between 1 nM and 0.1 nM)) | A (A represents a value of 3 or above) | E (E represents a pKi value of 7 or below (Ki of 100 nM or above)) | B (B represents a pC50 value between 6.7 (included) and 7.5 (IC50 between 200 nM and 32 nM)) | E (E represents a pKi value of 7 or below (Ki of 100 nM or above)) | A (A represents a value below 5×10^−6 cm/sec) | E (E represents a pKi value of 7 or below (Ki of 100 nM or above)) |
